Test results reported in patent US9394268B2, “(E)-1-(5-methoxy-2,2-dimethyl-2H-chromen-8-yl)-3-(4-methoxyphenyl)prop-2-en-1-one and analogs thereof, as well as preparation method and use thereof” (Sichuan University, priority 2012, dated 2016).
“Also recorded” adds a separate entry of the source.

Tests used:
HepG2 = experiment: Cell proliferative assay (MTT), HepG2; type: cell-based; conditions: Homo sapiens, 72 h incubation, read-out: IC50s HepG2
In short: (§1)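 IC50 values (mean±SEM, at least three independent experiments) come from dose-response curves of MTT absorbance at 590 nm. Treatment lasted 72 h, starting 24 h after seeding.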

SW620 = experiment: Cell proliferative assay (MTT), SW620; type: cell-based; conditions: Homo sapiens, SW-620, 72 h incubation, read-out: IC50s SW620
Experimental: (§2) The synthesized compounds were evaluated for their cytotoxin activity against suspended tumor cells. These cells were seeded on 96-well plates and incubated for 24 h. Selected compounds were added at various doses and incubated for 72 h, MTT was then added, and the absorbance was measured at a wavelength of 590 nm. IC50 values are expressed as the mean±SEM from the dose-response curves of at least three independent experiments.

HT29 = experiment: Cell proliferative assay (MTT), HT29; type: cell-based; conditions: Homo sapiens, HT-29, 72 h incubation, read-out: IC50s HT29
Experimental: as §2

K562 = experiment: Cell proliferative assay (MTT), K562; type: cell-based; conditions: Homo sapiens, 72 h incubation, read-out: IC50s K562
In short: as §1

HCT116 = experiment: Cell proliferative assay (MTT), HCT116; type: cell-based; conditions: Homo sapiens, HCT-116, 72 h incubation, read-out: IC50s HCT116
Experimental: as §2

tumor cells = experiment: Cell proliferative assay (MTT), summary over tumor cells; type: cell-based; conditions: summary in words of Table 1; colon, liver, leukemia lines
Experimental: as §2

A549 = experiment: Cell proliferative assay (MTT), A549; type: cell-based; conditions: Homo sapiens, 72 h incubation, read-out: IC50s A549
In short: as §1

A375 = experiment: Cell proliferative assay (MTT), A375; type: cell-based; conditions: Homo sapiens, A-375, 72 h incubation, read-out: IC50s A375
In short: as §1

SMMC-7221 = experiment: Cell proliferative assay (MTT), SMMC-7221; type: cell-based; conditions: 72 h incubation, read-out: IC50s SMMC-7221
In short: as §1

LO2 = experiment: Cell proliferative assay (MTT), LO2; type: cell-based; conditions: Homo sapiens, L02, 72 h incubation, read-out: IC50s LO2
In short: as §1

HepG2 cells = experiment: Human hepatocarcinoma HepG2 xenograft (SKLBC-45 study); type: in vivo, Balb/c nude mice; conditions: 2.5, 5, 10, 20 mg/kg intravenous every three days for eight times; vs vehicle control
Experimental: (5) In Vivo Anti-Tumor Activity of SKLBC-45 on Human Hepatocarcinoma HepG2 Xenograft
Six-week-old Balb/c nude mice were obtained from Chinese Academy of Medical Science (Beijing, China). HepG2 cells (10^7 in 100 μl saline) were injected subcutaneously into the right flanks of the mice. 14 days after cell injection, seventy mice were selected and randomly divided into seven groups including saline control, vehicle control, four doses of SKLBC-45 (2.5, 5, 10, 20 mg/kg) and positive control Adriamycin (5 mg/kg). The animals were intravenously injected with saline, SKLBC-45, adriamycin or vehicle every three days for eight times. Tumor burden and animal body weight was measured every 2 or 3 days. The survival rate was also recorded. After treatment, mice were killed and tumors were collected and weighted.

Compound `COc1ccc(/C=C/C(=O)c2ccc(OC)c3c2OC(C)(C)C=C3)c(F)c1` [SKLBC-4, (E)-3-(2-fluoro-4-methoxyphenyl)-1-(5-methoxy-2,2-dimethyl-2H-chromen-8-yl)prop-2-en-1-one] has an IC50 (HepG2) of 7.56 µM, an IC50 (SW620) of 6.57 µM and an IC50 (HT29) of over 10 µM. The IC50 (K562) was over 10 µM, the IC50 (HCT116) was over 10 µM and the “inhibitory activity against tumor cells” value (tumor cells) was “better inhibitory activity”.

With `COc1ccc(C(=O)/C=C/c2ccc3ccccc3c2)c2c1C=CC(C)(C)O2` [SKLBC-10, (E)-1-(5-methoxy-2,2-dimethyl-2H-chromen-8-yl)-3-(naphthalen-2-yl)prop-2-en-1-one] the IC50 (HepG2) was 0.21 µM, the IC50 (SW620) was 2.14 µM and the IC50 (HT29) was 4.48 µM. For the same compound, the IC50 (K562) was 3.67 µM, the IC50 (HCT116) was over 10 µM and the “inhibitory activity against tumor cells” value (tumor cells) was “better inhibitory activity”.

For `CCN(CC)c1ccc(/C=C/C(=O)c2ccc(OC)c3c2OC(C)(C)C=C3)cc1` [SKLBC-12, (E)-3-(4-(diethylamino)phenyl)-1-(5-methoxy-2,2-dimethyl-2H-chromen-8-yl)prop-2-en-1-one], the IC50 (HepG2) was 2.3 µM, the IC50 (SW620) was over 10 µM and the IC50 (HT29) was 1.31 µM. The IC50 (K562) was 4.6 µM, the IC50 (HCT116) was over 10 µM and the “inhibitory activity against tumor cells” value (tumor cells) was “better inhibitory activity”.

For `COc1ccc(C(=O)/C=C/c2ccc(N3CCCC3)cc2)c2c1C=CC(C)(C)O2` [SKLBC-14, (E)-1-(5-methoxy-2,2-dimethyl-2H-chromen-8-yl)-3-(4-(pyrrolidin-1-yl)phenyl)prop-2-en-1-one], the IC50 (HepG2) was 4.74 µM, the IC50 (SW620) was over 10 µM and the IC50 (HT29) was over 10 µM. The IC50 (K562) was over 10 µM, the IC50 (HCT116) was 8.88 µM and the “inhibitory activity against tumor cells” value (tumor cells) was “better inhibitory activity”.

For `COc1ccc(C(=O)/C=C/c2ccc3ccccc3n2)c2c1C=CC(C)(C)O2` [SKLBC-16, (E)-1-(5-methoxy-2,2-dimethyl-2H-chromen-8-yl)-3-(quinolin-2-yl)prop-2-en-1-one], the IC50 (HepG2) was 4.28 µM, the IC50 (SW620) was 2.25 µM and the IC50 (HT29) was 3.79 µM. For the same compound, the IC50 (K562) was 3.02 µM, the IC50 (HCT116) was over 10 µM and the “inhibitory activity against tumor cells” value (tumor cells) was “better inhibitory activity”.

With `COc1ccc(C(=O)/C=C/c2ccc([N+](=O)[O-])cc2)c2c1C=CC(C)(C)O2` [SKLBC-17, (E)-1-(5-methoxy-2,2-dimethyl-2H-chromen-8-yl)-3-(4-nitrophenyl)prop-2-en-1-one] the IC50 (HepG2) was 2.61 µM, the IC50 (SW620) was 3.52 µM and the IC50 (HT29) was 3.73 µM. The IC50 (K562) was 7.77 µM, the IC50 (HCT116) was over 10 µM and the “inhibitory activity against tumor cells” value (tumor cells) was “better inhibitory activity”.

`COc1ccc(C(=O)/C=C/c2cccc([N+](=O)[O-])c2)c2c1C=CC(C)(C)O2` [SKLBC-18, (E)-1-(5-methoxy-2,2-dimethyl-2H-chromen-8-yl)-3-(3-nitrophenyl)prop-2-en-1-one] was tested, and the IC50 (HepG2) was 2.83 µM, the IC50 (SW620) was 4.09 µM and the IC50 (HT29) was 4.26 µM. For the same compound, the IC50 (K562) was 5.87 µM, the IC50 (HCT116) was 8.05 µM and the “inhibitory activity against tumor cells” value (tumor cells) was “better inhibitory activity”.

Compound `COc1ccc(/C=C/C(=O)c2ccc(OC)c3c2OC(C)(C)C=C3)cc1O` [SKLBC-28, (E)-3-(3-hydroxy-4-methoxyphenyl)-1-(5-methoxy-2,2-dimethyl-2H-chromen-8-yl)prop-2-en-1-one] has an IC50 (HepG2) of 0.78 µM, an IC50 (SW620) of 0.67 µM and an IC50 (HT29) of 1.47 µM. The IC50 (K562) was 3.55 µM, the IC50 (HCT116) was 1.63 µM and the “inhibitory activity against tumor cells” value (tumor cells) was “better inhibitory activity”.

`COc1ccc(C(=O)/C=C/c2ccccn2)c2c1C=CC(C)(C)O2` [SKLBC-33, (E)-1-(5-methoxy-2,2-dimethyl-2H-chromen-8-yl)-3-(pyridin-2-yl)prop-2-en-1-one] gave an IC50 (HepG2) of 5.76 µM, an IC50 (SW620) of 5 µM and an IC50 (HT29) of 2.12 µM. For the same compound, the IC50 (K562) was 5.4 µM, the IC50 (HCT116) was over 10 µM and the “inhibitory activity against tumor cells” value (tumor cells) was “better inhibitory activity”.

In the case of `CCC(=O)Oc1ccc(C(=O)/C=C/c2ccc(N(CC)CC)cc2)c2c1C=CC(C)(C)O2` [SKLBC-45, (E)-8-(3-(4-(diethylamino)phenyl)acryloyl)-2,2-dimethyl-2H-chromen-5-yl propionate], the IC50 (HepG2) is reported as 0.148 µM, the IC50 (K562) is reported as 0.522 µM and the IC50 (A549) is reported as 0.36 µM. For the same compound, the IC50 (A375) was 0.62 µM, the IC50 (SMMC-7221) was 0.61 µM and the IC50 (LO2) was 20 µM. For the same compound, the average tumor weight (HepG2 cells) was “significantly lower”, the growth of tumor (HepG2 cells) was “significantly inhibited” and the “inhibitory activity against tumor cells” value (tumor cells) was “better inhibitory activity; also recorded: best inhibitory activity”.

Compound `CCN(CC)c1ccc(/C=C/C(=O)c2ccc(OS(=O)(=O)c3ccc(C)cc3)c3c2OC(C)(C)C=C3)cc1` [SKLBC-46, (E)-8-(3-(4-(diethylamino)phenyl)acryloyl)-2,2-dimethyl-2H-chromen-5-yl 4-methylbenzenesulfonate] has an IC50 (HepG2) of 9.7 µM, an IC50 (K562) of 4.42 µM and an IC50 (A549) of 9.7 µM. For the same compound, the IC50 (A375) was 8.4 µM, the IC50 (SMMC-7221) was over 10 µM and the IC50 (LO2) was 8.2 µM. For the same compound, the “inhibitory activity against tumor cells” value (tumor cells) was “better inhibitory activity”.

In the case of `CCN(CC)c1ccc(/C=C/C(=O)c2ccc(OS(C)(=O)=O)c3c2OC(C)(C)C=C3)cc1` [SKLBC-47, (E)-8-(3-(4-(diethylamino)phenyl)acryloyl)-2,2-dimethyl-2H-chromen-5-yl methanesulfonate], the IC50 (HepG2) is reported as 0.185 µM, the IC50 (K562) is reported as 0.528 µM and the IC50 (A549) is reported as 8.45 µM. It also gave an IC50 (A375) of 0.45 µM, an IC50 (SMMC-7221) of 0.23 µM and an IC50 (LO2) of over 20 µM. The “inhibitory activity against tumor cells” value (tumor cells) was “better inhibitory activity”.

For `C=CC(=O)Oc1ccc(C(=O)/C=C/c2ccc(N(CC)CC)cc2)c2c1C=CC(C)(C)O2` [SKLBC-49, (E)-8-(3-(4-(diethylamino)phenyl)acryloyl)-2,2-dimethyl-2H-chromen-5-yl acrylate], the IC50 (HepG2) was 5.55 µM, the IC50 (K562) was 2.92 µM and the IC50 (A549) was 6.9 µM. The IC50 (A375) was 4.1 µM, the IC50 (SMMC-7221) was 8.6 µM and the IC50 (LO2) was 8.6 µM. The “inhibitory activity against tumor cells” value (tumor cells) was “better inhibitory activity”.

`CCN(CC)c1ccc(/C=C/C(=O)c2ccc(OC(=O)c3ccco3)c3c2OC(C)(C)C=C3)cc1` [SKLBC-50, (E)-8-(3-(4-(diethylamino)phenyl)acryloyl)-2,2-dimethyl-2H-chromen-5-yl furan-2-carboxylate] was tested, and the IC50 (HepG2) was 0.703 µM, the IC50 (K562) was 0.59 µM and the IC50 (A549) was 1.61 µM. For the same compound, the IC50 (A375) was 9.2 µM, the IC50 (SMMC-7221) was 9.7 µM and the IC50 (LO2) was over 20 µM. The “inhibitory activity against tumor cells” value (tumor cells) was “better inhibitory activity”.

For `CCN(CC)c1ccc(/C=C/C(=O)c2ccc(OC(=O)C(C)C)c3c2OC(C)(C)C=C3)cc1` [SKLBC-52, (E)-8-(3-(4-(diethylamino)phenyl)acryloyl)-2,2-dimethyl-2H-chromen-5-yl isobutyrate], the IC50 (HepG2) was 0.59 µM, the IC50 (K562) was 0.317 µM and the IC50 (A549) was 0.94 µM. The IC50 (A375) was 0.61 µM, the IC50 (SMMC-7221) was 0.78 µM and the IC50 (LO2) was over 10 µM. The “inhibitory activity against tumor cells” value (tumor cells) was “better inhibitory activity”.

For `CCN(CC)c1ccc(/C=C/C(=O)c2ccc(OC(=O)C3CC3)c3c2OC(C)(C)C=C3)cc1` [SKLBC-54, (E)-8-(3-(4-(diethylamino)phenyl)acryloyl)-2,2-dimethyl-2H-chromen-5-yl cyclopropanecarboxylate], the IC50 (HepG2) was 0.533 µM, the IC50 (K562) was 0.51 µM and the IC50 (A549) was 0.41 µM. It also gave an IC50 (A375) of 0.263 µM, an IC50 (SMMC-7221) of 0.773 µM and an IC50 (LO2) of over 10 µM. The “inhibitory activity against tumor cells” value (tumor cells) was “better inhibitory activity”.

Compound `CCN(CC)c1ccc(/C=C/C(=O)c2ccc(OC(=O)Cc3cccc(C(F)(F)F)c3)c3c2OC(C)(C)C=C3)cc1` [SKLBC-55, (E)-8-(3-(4-(diethylamino)phenyl)acryloyl)-2,2-dimethyl-2H-chromen-5-yl 2-(3-(trifluoromethyl)phenyl)acetate] has an IC50 (HepG2) of 1.07 µM, an IC50 (K562) of 1.05 µM and an IC50 (A549) of 0.5 µM. The IC50 (A375) was 0.48 µM, the IC50 (SMMC-7221) was 1.62 µM and the IC50 (LO2) was over 10 µM. The “inhibitory activity against tumor cells” value (tumor cells) was “better inhibitory activity”.
